Data reported in patent publication EP2229935A1, “Peptide derivatives or pharmaceutically acceptable salts thereof, method for producing the same, use of said derivatives and pharmaceutical composition” (Nebolsin, Vladimir Evgenievich, priority 1997, dated 1999).
Marks after values point to notes of the source that are not given here.

Assays:
[1] = system: hydroxyl radical; assay: Hydroxyl radical formation in the Fenton reagent (chemiluminescence); assay type: biochemical
[2] = system: α-interferon; assay: α-interferon production by splenocytes after stress; assay type: in vivo, Balb male mice; conditions: 50 µg/kg orally
Protocol: Experiments were carried out on inbred Balb male mice with initial body mass 16-18 g. Each group included 12 animals. The model of swimming in warm water for 20 minutes was used to develop emotional-locomotory stress in animals. Stress development was estimated by the activity of natural killer lymphocytes (NK cells) and by functioning of the interferon system [Sukhikh T.G., Nossik N.N., Parshina O.V., Van'ko L.V., Meerson F.Z., Yershov F.I. Relationship between the natural cellular cytotoxicity system and the interferon system in immobilization stress. Bulletin of Experimental Biology (1984), ? , pp.593-595].
In studying interferon reaction of mouse splenocytes spleen cells were placed into incubation medium (the RPMI-1640 medium + 10% fetal calf serum), their concentration was brought to 1-3 x 10^8 cells/ml and they were incubated at 37°C for 24 hours. Newcasle disease virus (α-interferon induction) and FGA mitogen (γ-interferon induction) were used as intereferon inducers [Nossik N.N., Bopegamage S.A., Yershov F.I. Properties of interferons produced by different cell populations. Acta microbiologica Hungarica (1988), Vol. 35, Iss. 4, pp. 397-403].
Animals were divided into four groups, each including 36 mice. • Group 1 - intact animals not subjected to stress and given normal saline (NS). • Group 2 - animals which ere subjected to stress effect and given NS. • Group 3 - animals which were subjected to stress effect and administered compound III. • Group 4 - animals which were subjected to stress effect and administered compound XLIV.
Activity of NK-cells and interferon state were dynamically determined in 4 hours following stress, in 24 hours and then by days 5, 7 and 10.

[3] = system: peritoneal macrophages; assay: Activity of peritoneal macrophages (NBT reduction test); assay type: in vivo, mongrel white male mice; conditions: for portion of active macrophages: mice, oral three days at 50 and 500 µg/kg
Protocol: Change in the activity of peritoneal macrophages (PM) as effected by the test compounds was studied.
Experiments were carried out on mongrel white male mice with initial body mass 20-22 g. Each group included 10 animals. Compounds III, VI, XLIV were dissolved in normal saline (NS). The test compounds were administered to animals orally for three days at doses 50 and 500 µg/kg. Animals of the control group were given equal volume of NS. Mice were sacrified 20 hours after the last compound administration, peritoneal cavity was washed with 1.5 ml Henks solution comprising 5 U/ml heparine. 0.1 ml of wash solution were incubated for 30 minutes at 37°C with 0.1 ml 0.2% nitroblue tetrasolium (NBT) solution, then smears were prepared. Nuclei were additionaly stained with o.1% neutral red solution. Results were expressed in percent of active cells [Klimov V.V., Kolovkina T.V. Nitroblue tetrasolium reduction test stimulated with pyrogenal. Laborotornoye delo (Laboratory matter) (1982), No 10, pp. 624-625]. […]

[4] = system: mongrel male mice; assay: Average lifetime of mice in a closed volume (hypoxia); assay type: in vivo
Protocol: The tests of determining average lifetime of animals in a closed volume and on the model of acute hypobaric hypoxia at the minimum atmospheric rarefaction (170-185 mm Hg) were used to study antihypoxic activity of the compunds of general formula (I).
Mice were one by one placed into sealed glass jars and their lifetime was recorded.
The experiment was carried out on 90 mongrel male mice having initial body mass 20 ± 0,5 g housed in cages by 10 animals and given a standard vivarium ration. Average lifetime of mice in closed vessels having volume 250 ml was preliminarily determined and it was 22 to 25 minutes. All the groups included 10 animals each.
Experimental protocol: • a) - preliminary hypoxia for 12 minutes; • b) - first administration of a compound immediately following preliminary hypoxia; • c) - second administration of a compound in 24 hours after the first one, then daily for three days; • d) - recording lifetime of animals under hypoxic conditions in a sealed space 2 hours after the last administration of a compound.
The test compounds were dissolved in distilled water and orally administered to animals for 5 days.
Experimental groups: • Group 1 -(control) - without preliminary hipoxia with oral administration of distilled water for 5 days; • Groups 2 and 3 - administration of the compound XLIV using two doses 50 and 500 µg respectively; • Group 4 - oral administration of sodium oxybutyrate at a dose […] 2 hours before hypoxia; • Group 5 -(control)- with preliminary hypoxia for 12 minutes with subsequent administration of distilled water for 5 days; • Groups 6 and 7 - administration of the compound XLIV using two doses 50 and 500 µg respectively; • Groups 8 and 9 - administration of the compound III using two doses 50 and 500 µg respectively.

[5] = system: progesterone, 17-oxyprogesterone, 11-desoxycortisol and cortisol; assay: Blood serum hormone levels (radioimmunoassay); assay type: in vivo, guinea pigs; conditions: for Progesterone, blood serum level (Experiment) / Oxyprogesterone, blood serum level (Experiment) / Desoxycortisol, blood serum level (Experiment) / Cortisol, blood serum level (Experiment): oral three times 50 µg/kg
Protocol: Sensibilization of animals was done as described in example 27. Blood for hormonal level determination was sampled in animals before commencement of experiment and 18 hours after the last drug administration from 10 to 11 hours. […] A comparative hormonal state analysis was carried out by individual changes in each animal in a group. Mean parametric values expressed in nM/l, are presented by the groups in table 21.
Blood serum levels of the hormones progesterone, 17-oxyprogesterone, 11-desoxycortisol and cortisol were determined by radioimmunoassay using the Beloris company kits. Hormone concentration in samples was determined by the relation graph between the activity of a precipitated bound labelled hormone and hormone concentration in the calibration samples.

[6] = 1 µM, control of the series as in the table
[7] = 0.01 mM, control of the series as in the table
[8] = 0.1 mM, control of the series as in the table
[9] = 1 mM, control of the series 7839 ± 171, 1120 ± 163, 4974 ± 283 or 1332 ± 172
[10] = score 0 (no formazane inclusions, inactive PM), 50 µg/kg orally for three days
[11] = score 0 (no formazane inclusions, inactive PM), 500 µg/kg orally for three days
[12] = score 1 (single formazane inclusions), 50 µg/kg orally for three days
[13] = score 1 (single formazane inclusions), 500 µg/kg orally for three days
[14] = score 2 (inclusions fill up to 1/3 of PM cytoplasm), 50 µg/kg orally for three days
[15] = score 2 (inclusions fill up to 1/3 of PM cytoplasm), 500 µg/kg orally for three days
[16] = score 3 (inclusions fill up to 1/2 of PM cytoplasm), 50 µg/kg orally for three days
[17] = score 3 (inclusions fill up to 1/2 of PM cytoplasm), 500 µg/kg orally for three days
[18] = with preliminary hypoxia 12 minutes, oral 5 days, 0,05 mg/kg
[19] = with preliminary hypoxia 12 minutes, oral 5 days, 0,50 mg/kg

| Molecule | relative effect: I+/I- ([1]; 1 µM) | Chemiluminiscence intensity (mV) + σn-1 [1, 6] [mV] | relative effect: I+/I- ([1]; 0.01 mM) | Chemiluminiscence intensity (mV) + σn-1 [1, 7] [mV] | relative effect: I+/I- ([1]; 0.1 mM) | Chemiluminiscence intensity (mV) + σn-1 [1, 8] [mV] | relative effect: I+/I- ([1]; 1 mM) | Chemiluminiscence intensity (mV) + σn-1 [1, 9] [mV] | α-interferon, U/ml ([2]; 0 days after stress) [U/ml] | α-interferon, U/ml ([2]; 0.16 days after stress) [U/ml] | α-interferon, U/ml ([2]; 1 day after stress) [U/ml] | α-interferon, U/ml ([2]; 5 days after stress) [U/ml] | α-interferon, U/ml ([2]; 7 days after stress) [U/ml] | α-interferon, U/ml ([2]; 10 days after stress) [U/ml] | portion of active macrophages [3] | Activity of macrophages, percent [3, 10] [%] | Activity of macrophages, percent [3, 11] [%] | Activity of macrophages, percent [3, 12] [%] | Activity of macrophages, percent [3, 13] [%] | Activity of macrophages, percent [3, 14] [%] | also measured |
| --- | --- | --- | --- | --- | --- | --- | --- | --- | --- | --- | --- | --- | --- | --- | --- | --- | --- | --- | --- | --- | --- |
| O=C(O)CCCC(=O)NCCc1c[nH]cn1 [compound III, N-GLUTARYLHISTAMINE] | 0.98 | 1100 ± 84 | 0.87 | 972 ± 79 | 0.64 | 719 ± 71 | 0.15 | 164 ± 14 | 160 | 10 | 10 | 160 | 160 | 160 | pronounced in study of the both substance doses | 11.6 ± 2.8 | 12.8 ± 1.3 | 27.5 ± 2.5 | 31.3 ± 2.3 | 44.6 ± 1.9 | Activity of macrophages, percent [3, 15]: 46.0 ± 2.6%; Activity of macrophages, percent [3, 16]: 15.8 ± 3.3%; Activity of macrophages, percent [3, 17]: 10.9 ± 2.1%; Lifetime (seconds) [4, 18]: 1670,6±25,3*^5 seconds; Lifetime (seconds) [4, 19]: 1532,6±96,0 seconds; hormonal state changes ([5]; intact and sensitized guinea pigs, compared with compound XLIV): the same hormonal state changes were observed |
| γ-L-glutamylhistamine [compound XLIV] | 1.0 | 7747 ± 259 | 0.83 | 6444 ± 267 | 0.59 | 4625 ± 393 | 0.28 (*) | 2197 ± 311 | 160 | 10 | 80 | 80 | 100 | 140 | more pronounced at a dose 500 µg/kg | 23.9 ± 4.4 | 17.4 ± 2.5 | 37.3 ± 3.4 | 37.3 ± 3.9 | 34.9 ± 5.9 | Activity of macrophages, percent [3, 15]: 35.8 ± 4.4%; Activity of macrophages, percent [3, 16]: 5.4 ± 2.0%; Activity of macrophages, percent [3, 17]: 9.4 ± 2.9%; Lifetime (seconds) [4, 18]: 1415,5±47,2 seconds; Lifetime (seconds) [4, 19]: 1844,8±93,2*^5 seconds; Lifetime (seconds) ([4]; without preliminary hypoxia, oral 5 days, 0,05 mg/kg): 2110,6±123,6**^1 seconds; Lifetime (seconds) ([4]; without preliminary hypoxia, oral 5 days, 0,50 mg/kg): 1742,8±68,1*^1 seconds; Progesterone, blood serum level (Experiment) ([5]; intact guinea pigs, individual control 2.53): 2.87 nM/l; Oxyprogesterone, blood serum level (Experiment) ([5]; intact guinea pigs, individual control 2.83): 3.88* nM/l; Desoxycortisol, blood serum level (Experiment) ([5]; intact guinea pigs, individual control 20.8): 30.95* nM/l; Cortisol, blood serum level (Experiment) ([5]; intact guinea pigs, individual control 1474.5): 1891.5* nM/l; Progesterone, blood serum level (Experiment) ([5]; sensitized guinea pigs, individual control 1.73): 5.08** nM/l; Oxyprogesterone, blood serum level (Experiment) ([5]; sensitized guinea pigs, individual control 1.79): 2.31* nM/l; Desoxycortisol, blood serum level (Experiment) ([5]; sensitized guinea pigs, individual control 28.9): 33.5 nM/l; Cortisol, blood serum level (Experiment) ([5]; sensitized guinea pigs, individual control 1910.3): 1997.0 nM/l |
